Source: US11932595B2, “VDR-silent vitamin D derivative as inhibitors of SREBP and pharmaceutical use thereof” (KYOTO UNIVERSITY, priority 2020, dated 2024)

Tests used:
SREBP = SREBP luciferase reporter assay (pSRE-Luc) in CHO-K1 cells; assay type: cell-based; settings: CHO-K1 cells
Protocol: Cell Culture: CHO-K1 cells were maintained in medium A (1:1 mixture of Ham's F-12 medium and DMEM, supplemented with 100 units/mL penicillin, 100 μg/mL streptomycin sulfate, and 5% [v/v] fetal bovine serum) at 37° C. in a humidified 5% CO2 incubator.
CHO-K1 cells were seeded into 96-well plates at 8×10^3 cells per well in medium A and incubated for 24 h. For SREBP reporter assay, cells were co-transfected with an SRE-1-driven luciferase reporter plasmid (pSRE-Luc) and an actin promoter-driven β-galactosidase expression plasmid (pAc-13-gal) at a 20:1 ratio, using FuGENE HD Transfection Reagent (Promega) according to the manufacturer's protocol.
After 20 h, the medium was changed to medium B (1:1 mixture of Ham's F-12 medium and DMEM, supplemented with 100 units/mL penicillin, 100 μg/mL streptomycin sulfate, 5% [v/v] lipid-depleted serum, 50 μM compactin (Tokyo Chemical Industry), and 50 μM lithium mevalonate (Sigma-Aldrich) containing the specific test compounds. After 24 h incubation, the cells in each well were lysed with 100 μL of 1× Reporter Lysis Buffer (Promega), and 50 μL of aliquots were used to measure luciferase and 13-gal activities. Luciferase activity was measured using the Steady-Glo Luciferase Assay System (Promega), and 13-gal activity was measured using the 13-Galactosidase Enzyme Assay System (Promega). Luciferase activity was normalized to 13-gal activity.
[…] The same experiment using of 25(OH)D3 (1) was performed as control. Values are mean±SD.

SREBP-responsive genes = assay: Short-term in vivo model (fasting/refeeding): hepatic mRNA of SREBP-responsive genes by real-time PCR; parameters: species or system mice
Protocol: (§1) To quickly and simultaneously examine their SREBP inhibitory activity and VDR-derived calcemic activity in vivo, a short-term in vivo screening system of mice was established. With reference to the previous report (Horton, J. D. et al. Proc. Natl. Acad. Sci. U.S.A. 1998, 95, 5987-5992.), mice were fasted for 48 hours then refed a special diet (low fat, high carbohydrate diet, lacking in vitamin D) for 48 hours before sacrifice.
C57BL/6 and oh/oh mice were purchased from CLEA Japan and Charles River Japan, Inc., respectively. Animal experiments were carried out at the University of Tokyo and Charles River Laboratories. Low fat, high carbohydrate diet, lacking vitamin D was custom made by Research Diets, Inc. Compounds disclosed herein and 25(OH)D3 were dissolved in ethanol/Tween 20 (9:1) to obtain stock solution and then diluted 10-fold with PBS immediately before administration to mice.
10 mg/kg compounds or vehicle control were administered intraperitoneally once every 24 hours during the fasting and refeeding.
Relative mRNA levels of SREBP-responsive genes were determined by real-time PCR in the livers obtained from the mice with free access to a normal diet or fasted and refed a special diet (means SEM, n=3 per group), *p<0.05.
Expression levels of SREBP-responsive genes were determined by real-time PCR in the livers obtained from the mice treated with indicated compounds (10 mg/kg) according to the protocol illustrated in FIG. 5A. Data are expressed as relative expression to the mean value of vehicle-treated mouse liver (means±SEM, n=3 per group), *p<0.05 (FIG. 5C).
Relative mRNA levels of SREBP-responsive genes were determined by real-time PCR in the livers obtained from the indicated mice Data are means±SEM (fed mice, n=3; others, n=6), *p<0.05 (FIG. 5E).

SCAP protein = molecular target: T1, SCAP protein (Mus musculus, UniProt Q6GQT6); assay: Short-term in vivo model: Western blot of SCAP protein in the liver; parameters: species or system mice; settings: FIG. 5F
T1 construct: from tissue; host or cells: mouse liver
T1 sequence (Q6GQT6 1-1276): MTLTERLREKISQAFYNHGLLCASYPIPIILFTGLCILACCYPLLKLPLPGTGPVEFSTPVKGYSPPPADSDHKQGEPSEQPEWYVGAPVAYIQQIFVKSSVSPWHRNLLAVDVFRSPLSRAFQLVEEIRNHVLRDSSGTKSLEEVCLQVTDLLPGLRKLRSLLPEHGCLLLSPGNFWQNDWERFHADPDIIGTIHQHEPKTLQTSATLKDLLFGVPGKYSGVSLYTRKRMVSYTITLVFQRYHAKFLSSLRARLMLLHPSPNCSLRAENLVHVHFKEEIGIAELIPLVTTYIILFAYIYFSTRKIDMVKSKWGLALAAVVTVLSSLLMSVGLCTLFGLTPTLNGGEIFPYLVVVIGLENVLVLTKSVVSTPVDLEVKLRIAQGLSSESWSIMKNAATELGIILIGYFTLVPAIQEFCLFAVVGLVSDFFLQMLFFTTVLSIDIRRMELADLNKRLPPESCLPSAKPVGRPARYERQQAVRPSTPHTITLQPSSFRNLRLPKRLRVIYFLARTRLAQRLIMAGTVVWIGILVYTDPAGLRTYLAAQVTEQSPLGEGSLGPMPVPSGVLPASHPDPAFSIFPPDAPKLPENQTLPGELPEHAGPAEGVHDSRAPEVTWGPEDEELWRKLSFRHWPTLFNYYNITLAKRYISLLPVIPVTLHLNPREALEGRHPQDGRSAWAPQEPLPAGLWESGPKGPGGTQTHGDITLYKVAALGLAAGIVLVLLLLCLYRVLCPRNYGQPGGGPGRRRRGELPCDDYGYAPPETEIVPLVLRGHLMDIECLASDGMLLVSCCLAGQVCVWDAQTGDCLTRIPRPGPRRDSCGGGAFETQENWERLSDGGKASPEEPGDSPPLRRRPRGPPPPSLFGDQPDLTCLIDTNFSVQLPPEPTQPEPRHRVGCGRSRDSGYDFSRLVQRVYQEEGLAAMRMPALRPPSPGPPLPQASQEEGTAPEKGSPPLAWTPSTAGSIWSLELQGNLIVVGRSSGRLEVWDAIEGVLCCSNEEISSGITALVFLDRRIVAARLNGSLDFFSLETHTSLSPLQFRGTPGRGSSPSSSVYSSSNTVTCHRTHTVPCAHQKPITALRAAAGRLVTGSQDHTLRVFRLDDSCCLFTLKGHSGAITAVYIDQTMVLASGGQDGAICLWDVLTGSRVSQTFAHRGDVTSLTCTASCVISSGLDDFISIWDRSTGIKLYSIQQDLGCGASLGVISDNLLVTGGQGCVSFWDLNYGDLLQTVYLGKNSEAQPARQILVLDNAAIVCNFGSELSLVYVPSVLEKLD
Protocol: as §1, with “sacrifice. 10 mg/kg compounds or vehicle control were administered intraperitoneally once every 24 hours during the fasting and refeeding. Western blot analysis of SCAP protein in the livers obtained from the indicated mice were obtained, (FIG. 5F).” for “sacrifice.”

Structure (SMILES)	SREBP inhibitory activity (expression of SREBP-responsive luciferase reporter gene) (SREBP; 5 μM compound, lipid-free medium, 24 h, FIGS. 1 and 3)	hepatic expression of SREBP-response genes ACC1 and FASN versus vehicle (SREBP-responsive genes; 10 mg/kg intraperitoneally once every 24 hours, fasted 48 h/refed 48 h, n=3, FIG. 5C)	elevated hepatic expression of the three SREBP-responsive genes ACC1, FASN and SCD1 (SREBP-responsive genes; 10 mg/kg intraperitoneally, fasting/refeeding, FIG. 5C)	elevated hepatic expression of the four SREBP-responsive genes, repeated examination (SREBP-responsive genes; 10 mg/kg, increased number of mice (n=6), FIG. 5E)	inhibition of activation of the SREBP reporter gene, concentration dependence (SREBP; FIG. 6A)	increased hepatic expression of SCAP protein after fasting and refeeding (SCAP protein)
C=C1CC[C@H](O)C/C1=C/C=C1\CCC[C@]2(C)[C@@H]([C@H](C)CCCC(C)(C)O)CC[C@@H]12 [25(OH)D3, 25-hydroxyvitamin D3, reference compound]	substantial inhibitory activity	–	–	–	–	–
C[C@H](CCC(F)(F)C(C)(C)O)[C@H]1CC[C@H]2/C(=C/Cn3nnnc3-c3ccccc3)CCC[C@]12C [Compound 50, (R)-3,3-Difluoro-2-methyl-6-{(1R,3aS,7aR,E)-7a-methyl-4-[2-(5-phenyl-1H-tetrazol-1-yl)ethylidene]octahydro-1H-inden-1-yl}heptan-2-ol]	–	significantly suppressed	mitigated the elevated expression	significantly mitigated	concentration-dependent manner comparable to 25(OH)D3	canceled
